Measurements from patent publication US10150737B2, “Compounds for controlling arthropods” (priority 2013, dated 2018).

How the values were obtained:
Ctenocephalides felis [1] = assay: Ctenocephalides felis - oral test; assay type: in vivo; settings: application rate 100 ppm in citrated cattle blood; after 2 days
Outline: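 Roughly 20 unfed adult C. felis imbibe compound-dosed citrated cattle blood (DMSO formulation) across parafilm from a cylinder above their gauze chamber; percentage mortality recorded at day 2.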

Ctenocephalides felis [2] = assay: Ctenocephalides felis - in vitro contact tests with adult cat fleas; assay type: in vivo; settings: application rate 5 μg/cm2 (=500 g/ha); after 48 h; fleas dead or moribund
Outline: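 Efficacy, as percentage of fleas dead or moribund, was scored at 48 h by knocking fleas to the tube base. Exposure was by contact with a dried acetone film of compound at 5 μg/cm^2 area dose; 5–10 adults per tube, room temperature, ambient humidity.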

Boophilus microplus = Boophilus microplus - injection test; assay type: in vivo; settings: application rate 20 μg/animal; injection into engorged adult female ticks; after 7 days
Outline: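 Five engorged adult female cattle ticks each received a 1 μl abdominal injection of compound solution in dimethyl sulphoxide. Fertile egg laying was assessed at 7 days, with doubtful eggs incubated about 42 days until hatch. 0% efficacy means all eggs fertile.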

Tetranychus urticae = Tetranychus urticae - spray test, OP-resistant; assay type: in vivo; settings: bean leaf discs, after 6 days
Outline: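 Mortality (%) read on day 6 after spraying Phaseolus vulgaris leaf discs carrying all mite stages with formulations at the desired concentration. Formulation: active ingredient in acetone plus dimethylformamide, made up with emulsifier-containing water (1000 ppm alkylaryl polyglycol ether).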

[3] = logP determination by HPLC on a reversed-phase column (C18); assay type: physicochemical; settings: for logP^a): HPLC-MS method a); for log P: HPLC-MS
Musca domestica = Musca domestica test; assay type: in vivo; settings: application rate 100 ppm; adult houseflies; after 2 days
Outline: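 Water-diluted DMSO stock of compound, mixed onto a sugar-treated sponge, served as the sole exposure route for ten adult houseflies. Kill percentage scored at 2 days.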

[4] = test system: Boophilus microplus Parkhurst strain, SP-resistant; assay: Boophilus microplus - dip test; assay type: in vivo; settings: application rate 100 ppm; dip of engorged adult female ticks; after 7 days
Outline: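 Compound dissolved in DMSO, diluted with water, and used to fully wet groups of 8-10 engorged female cattle ticks (SP-resistant Parkhurst strain). Fertile egg laying assessed at 7 days, doubtful eggs held ~42 days until hatch; 0% means all eggs fertile.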

Lucilia cuprina = Lucilia cuprina test; assay type: in vivo; settings: application rate 100 ppm; L1 larvae; after 2 days
Outline: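 Mortality (%) of first-instar blowfly larvae, about 20 per vessel, recorded 2 days after exposure to compound-treated minced horsemeat. Compound dissolved in dimethyl sulphoxide, then water-diluted to the desired concentration.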

Rhipicephalus sanguineus = Rhipicephalus sanguineus - in vitro contact tests with adult brown dog ticks; assay type: in vivo; settings: after 48 h, ticks dead or moribund
Outline: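 Efficacy, scored after 48 h, is the % of adult ticks dead or moribund, i.e. unable to climb away on a 45-50° C hotplate within 5 min. Tubes held 5-10 ticks in the dark at room temperature, on an acetone-applied coating of 5 μg/cm^2 (900 ppm solution).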

Amblyomma hebraeum = assay: Amblyomma hebaraeum test (tick nymphs, immersion); assay type: in vivo; settings: application rate 100 ppm; tick nymphs immersed one minute; after 42 days
Protocol: Solvent: dimethyl sulphoxide
To produce an appropriate active ingredient formulation, 10 mg of active ingredient are mixed with 0.5 ml of dimethyl sulphoxide, and the concentrate is diluted with water to the desired concentration.
Tick nymphs (Amblyomma hebraeum) are placed into perforated plastic beakers and immersed in the desired concentration for one minute. The ticks are transferred on filter paper into a Petri dish and stored in a climate-controlled cabinet.
After 42 days, the kill in % is determined. 100% means that all of the ticks have been killed; 0% means that none of the ticks have been killed.

Spodoptera frugiperda = Spodoptera frugiperda - spray test; assay type: in vivo; settings: caterpillars on maize leaf discs, after 7 days
Outline: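 Percent mortality of Spodoptera frugiperda caterpillars scored 7 days after placing them on dried maize leaf discs sprayed at the desired concentration. Spray formulation: compound dissolved in acetone/dimethylformamide, made up with water containing 1000 ppm emulsifier.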

Phaedon cochleariae = Phaedon cochleariae - spray test; assay type: in vivo; settings: larvae on Chinese cabbage leaf discs, after 7 days
Outline: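 Mortality of mustard beetle larvae was scored as % at day 7 on Brassica pekinensis leaf discs. Discs had been treated by spraying at the desired concentration, using an acetone/dimethylformamide solution diluted in water with 1000 ppm alkylaryl polyglycol ether, and dried before larvae were added.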

Myzus persicae = Myzus persicae - spray test; assay type: in vivo; settings: Chinese cabbage leaf discs, after 6 days
Outline: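 Mortality of the green peach aphid, as % killed, was read 6 days after spraying infested Brassica pekinensis leaf discs. Compound formulated in acetone/dimethylformamide and made up with emulsifier-containing (1000 ppm) water.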

[5] = reversed-phase column (C18), Table I-T3

Row | Compound | efficacy (kill) (Ctenocephalides felis [1]) | efficacy (Ctenocephalides felis [2]) | efficacy (laying of fertile eggs) (Boophilus microplus) | efficacy (Tetranychus urticae; application rate 100 g/ha) | efficacy (kill) (Musca domestica) | efficacy (laying of fertile eggs) [4] | efficacy (kill) (Lucilia cuprina) | efficacy (Rhipicephalus sanguineus; application rate 5 μg/cm2) | efficacy (kill) (Amblyomma hebraeum) | efficacy (Spodoptera frugiperda; application rate 100 g/ha) | efficacy (Phaedon cochleariae; application rate 100 g/ha) | efficacy (Tetranychus urticae; application rate 500 g/ha) | efficacy (Myzus persicae; application rate 500 g/ha) | log P [3, 5] | efficacy (Spodoptera frugiperda; application rate 500 g/ha) | efficacy (Phaedon cochleariae; application rate 500 g/ha) | efficacy (Myzus persicae; application rate 100 g/ha) | logP^a) ([3]; reversed-phase column (C18)) | also measured
1 | Cc1cc(C(F)(C(F)(F)F)C(F)(F)F)cc(C)c1-n1cc(-c2ccc(Cl)c(C(=O)NC3CC3)c2)cn1 [I-T3-1] | 100% | 100% | 100% | 100% | 100% | 100% | 100% | 100% | 100% | 100% | 100% |  |  |  |  |  |  |  | logP^a) [3]: 4.4; logP^a) [3, 5]: 4.4
2 | O=C(NC1CC1)c1cc(-c2cnn(-c3c(Cl)cc(C(F)(C(F)(F)F)C(F)(F)F)cc3C(F)(F)F)c2)ccc1Cl [I-T3-56] | 100% | 100% | 100% | 100% | 100% | 100% | 100% | 100% | 100% | 100% | 100% |  |  |  |  |  |  |  | logP^a) [3]: 4.4; logP^a) [3, 5]: 4.4
3 | CN(C(=O)c1cc(-c2cnn(-c3c(Cl)cc(C(F)(C(F)(F)F)C(F)(F)F)cc3Cl)c2)cnc1Cl)C1CC1 [I-T3-100] | 100% | 100% | 100% |  | 100% | 100% | 100% |  | 100% |  |  | 100% | 100% | 4.4 | 100% | 100% |  |  | logP^a) [3]: 4.4
4 | Cc1cc(C(F)(C(F)(F)F)C(F)(F)F)cc(C)c1-n1cc(-c2cnc(Cl)c(C(=O)N(C)C3CC3)c2)cn1 [I-T3-101] | 100% | 100% | 100% |  | 100% | 100% | 100% |  | 95% |  |  | 100% |  | 4.4 | 83% | 100% | 100% | 4.4 | 
5 | Cc1cc(C(F)(C(F)(F)F)C(F)(F)F)cc(C)c1-n1cc(-c2cnc(Cl)c(C(=O)N(C)C3(C#N)CC3)c2)cn1 [I-T3-103] | 100% | 100% | 100% |  | 100% | 100% | 100% |  | 90% |  |  | 100% | 90% | 4.3 | 100% | 100% |  | 4.3 | 
6 | CCc1cc(C(F)(C(F)(F)F)C(F)(F)F)ccc1-n1cc(-c2cnc(Cl)c(C(=O)NC3CC3)c2)cn1 [I-T3-104] | 100% |  | 100% |  | 100% | 100% | 100% | 100% | 100% |  |  | 90% |  | 4.2 | 100% | 100% |  | 4.2 | 
7 | CCc1cc(C(F)(C(F)(F)F)C(F)(F)F)ccc1-n1cc(-c2cnc(Cl)c(C(=O)NC3(C#N)CC3)c2)cn1 [I-T3-105] | 100% |  | 100% |  | 80% |  | 100% |  | 85% |  |  | 90% | 90% | 4.1 | 100% | 100% |  | 4.1 | efficacy (Rhipicephalus sanguineus; application rate 0.2 μg/cm2): 100%
8 | Cc1cc(C(F)(C(F)(F)F)C(F)(F)F)cc(C(F)(F)F)c1-n1cc(-c2cnc(Cl)c(C(=O)N(C)C3CC3)c2)cn1 [I-T3-107] | 100% | 100% | 100% |  | 100% | 100% | 100% |  | 100% |  |  | 100% | 100% | 4.5 | 100% | 100% |  | 4.5 | 
9 | CN(C(=O)c1cc(-c2cnn(-c3c(Cl)cc(C(F)(C(F)(F)F)C(F)(F)F)cc3C(F)(F)F)c2)cnc1Cl)C1(C#N)CC1 [I-T3-116] | 100% | 100% | 100% |  | 100% | 100% | 100% |  | 100% |  |  | 90% |  | 4.3 | 100% | 100% | 100% | 4.3 | 
10 | Cc1ncc(-c2cnn(-c3c(Cl)cc(C(F)(C(F)(F)F)C(F)(F)F)cc3C(F)(F)F)c2)cc1C(=O)NC1CC1 [I-T3-124] | 100% | 100% | 100% | 100% | 100% | 100% | 100% |  | 100% | 100% | 100% |  |  | 3.5 |  |  | 100% | 3.5 | 
11 | Cc1ncc(-c2cnn(-c3c(Cl)cc(C(F)(C(F)(F)F)C(F)(F)F)cc3C(F)(F)F)c2)cc1C(=O)N(C)C1(C#N)CC1 [I-T3-131] | 100% | 100% | 100% | 100% | 100% | 100% | 100% |  | 100% | 100% | 100% |  |  | 3.9 |  |  | 90% | 3.9 | 
12 | Cc1cc(C(F)(C(F)(F)F)C(F)(F)F)cc(C)c1-c1cnn(-c2cnc(Cl)c(C(=O)NC3(C#N)CC3)c2)c1 [I-T4-4] | 100% | 100% | 100% | 100% |  | 100% | 100% | 100% | 100% | 100% | 100% |  |  |  |  |  |  |  | logP ([3]; HPLC, C18 reversed phase, acetonitrile/water with formic acid, EEC Directive 79/831 Annex V.A8): 4.3
